Test system: Rhodopseudomonas palustris TIE-1 wild-type biofilms
Assay: μ-BEC current density measurement of extracellular electron uptake (EEU) by surface-attached biofilms treated with photosynthetic ETC inhibitors
Format: cell-based
Conditions: working electrode poised at +100 mV vs. SHE, inhibitor concentration not given
[1] = illuminated (phototrophic) conditions

Row | Compound | Current density (dark conditions) | Current density [1]
1 | N#CC(C#N)=NNc1cccc(Cl)c1 [CCCP, carbonyl cyanide m-chlorophenyl hydrazone] | −18.4±14.0 nA cm^−2 | 21.2±9.13 nA cm^−2
2 | antimycin A | −3.46±1.80 nA cm^−2 | 12.46±1.34 nA cm^−2

— patent US20250360505A1, “MICRO-BIOELECTROCHEMICAL CELL DEVICES AND METHODS OF DETECTING ELECTRON FLOWS” (Washington University, priority 2019, published 2025)
